This note sets out measurements from ChEMBL document CHEMBL1144222, “Distinctive molecular inhibition mechanisms for selective inhibitors of human 11beta-hydroxysteroid dehydrogenase type 1” (Bioorg Med Chem, 2008).

Usually IC50 stands for the concentration needed to halve the response being measured.

The experiment has as its target 11-beta-hydroxysteroid dehydrogenase 1 (Homo sapiens, UniProt P28845). Put plainly: Inhibition of FLAG tagged human recombinant 11beta-HSD1 reductase activity expressed in Trichoplusia ni Hi5 cells. The class given is cell-based, BTI-TN-5B1-4.

11-beta-hydroxysteroid dehydrogenase 1, sequence (P28845 whole entry): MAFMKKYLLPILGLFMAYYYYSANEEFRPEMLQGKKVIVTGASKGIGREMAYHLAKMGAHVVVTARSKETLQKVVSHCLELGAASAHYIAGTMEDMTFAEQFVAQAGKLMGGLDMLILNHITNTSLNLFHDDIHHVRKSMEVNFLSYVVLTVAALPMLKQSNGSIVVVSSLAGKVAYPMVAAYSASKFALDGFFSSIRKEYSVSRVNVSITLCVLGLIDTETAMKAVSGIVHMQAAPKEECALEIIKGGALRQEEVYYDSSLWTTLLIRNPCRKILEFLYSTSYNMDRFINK

Take `CC(C)n1c(-c2ccc(OC(F)(F)F)cc2)nnc1C1(c2ccc(F)cc2)CC1`: the concentration for half-maximal inhibition (IC50) is 1.6 nM.
